Test results reported in ChEMBL document CHEMBL4145694 (J Med Chem, 2018).
Calls of active or inactive are those of the source. The calls are words filed in the database; no cut-off is given here.

Columns and labels:
[1] = molecular target: Kappa-type opioid receptor (Homo sapiens) (UniProt P41145); assay: Agonist activity at human kappa-opioid receptor expressed in CHO cell membranes assessed as stimulation of [35S]GTPgammaS binding at 10 uM incubated for 60 mins by scintillation counting method; type: functional
Chain of Kappa-type opioid receptor (Homo sapiens) (P41145 whole entry): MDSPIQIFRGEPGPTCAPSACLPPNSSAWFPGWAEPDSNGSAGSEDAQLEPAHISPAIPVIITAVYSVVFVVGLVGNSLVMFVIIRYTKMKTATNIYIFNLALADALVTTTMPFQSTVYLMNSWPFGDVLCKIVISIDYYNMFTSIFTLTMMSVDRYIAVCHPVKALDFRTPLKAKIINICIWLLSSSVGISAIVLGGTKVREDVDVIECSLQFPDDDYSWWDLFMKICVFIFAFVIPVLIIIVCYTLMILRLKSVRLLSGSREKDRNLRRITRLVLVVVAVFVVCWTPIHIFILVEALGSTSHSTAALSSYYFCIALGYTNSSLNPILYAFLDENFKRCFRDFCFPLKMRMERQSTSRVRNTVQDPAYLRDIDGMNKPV

[2] = molecular target: Delta-type opioid receptor (Homo sapiens) (UniProt P41143); assay: Agonist activity at human delta-opioid receptor expressed in CHO cell membranes assessed as stimulation of [35S]GTPgammaS binding at 10 uM incubated for 60 mins by scintillation counting method; type: functional
Chain of Delta-type opioid receptor (Homo sapiens) (P41143 whole entry): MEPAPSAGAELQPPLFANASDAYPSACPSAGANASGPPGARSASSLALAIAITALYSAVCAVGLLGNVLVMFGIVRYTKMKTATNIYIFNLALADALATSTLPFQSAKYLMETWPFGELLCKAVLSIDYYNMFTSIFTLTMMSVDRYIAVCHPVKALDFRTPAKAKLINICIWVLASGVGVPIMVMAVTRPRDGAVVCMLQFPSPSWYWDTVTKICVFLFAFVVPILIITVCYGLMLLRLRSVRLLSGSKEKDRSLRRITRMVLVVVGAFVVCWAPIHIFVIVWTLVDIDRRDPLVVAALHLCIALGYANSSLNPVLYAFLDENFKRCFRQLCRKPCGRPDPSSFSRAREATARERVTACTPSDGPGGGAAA

[3] = molecular target: Mu-type opioid receptor (Homo sapiens) (UniProt P35372); assay: Agonist activity at human mu-opioid receptor expressed in CHO cell membranes assessed as stimulation of [35S]GTPgammaS binding at 10 uM incubated for 60 mins by scintillation counting method; type: functional
Chain of Mu-type opioid receptor (Homo sapiens) (P35372 whole entry): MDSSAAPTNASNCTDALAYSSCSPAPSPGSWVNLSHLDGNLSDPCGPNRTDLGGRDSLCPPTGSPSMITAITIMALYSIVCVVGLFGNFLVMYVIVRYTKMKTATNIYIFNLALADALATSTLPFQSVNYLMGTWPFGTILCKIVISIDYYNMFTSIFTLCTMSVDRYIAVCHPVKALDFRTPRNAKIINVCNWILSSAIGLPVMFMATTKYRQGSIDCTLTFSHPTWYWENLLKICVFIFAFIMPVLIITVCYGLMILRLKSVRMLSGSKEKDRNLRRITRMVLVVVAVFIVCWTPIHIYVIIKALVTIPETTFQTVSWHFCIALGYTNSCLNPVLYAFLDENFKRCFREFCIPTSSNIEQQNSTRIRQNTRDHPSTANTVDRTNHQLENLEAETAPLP

[4] = Ratio of AUClast in brain to plasma of Sprague-Dawley CD rat at 5 mg/kg, sc administered as single dose measured over 1 to 168 hrs post dose by LC/MS-MS method; type: ADME, organism-based; conditions: Sprague-Dawley CD, brain and plasma, read-out: BPR
[5] = molecular target: Mu-type opioid receptor (Homo sapiens) (UniProt P35372); assay: Antagonist activity at human mu-opioid receptor expressed in CHO cell membranes assessed as inhibition of DAMGO-induced [35S]GTPgammaS binding incubated for 60 mins by scintillation counting method; type: functional
[6] = molecular target: Kappa-type opioid receptor (Homo sapiens) (UniProt P41145); assay: Antagonist activity at human kappa-opioid receptor expressed in CHO cell membranes assessed as inhibition of U69593-induced [35S]GTPgammaS binding incubated for 60 mins by scintillation counting method; type: functional
Homo sapiens [7] = species on record: Homo sapiens; assay: Selectivity index, ratio of Ke for antagonist activity at human mu-opioid receptor expressed in CHO cell membranes to Ke for antagonist activity at human kappa-opioid receptor expressed in CHO cell membranes; type: cell-based
[8] = molecular target: Delta-type opioid receptor (Homo sapiens) (UniProt P41143); assay: Antagonist activity at human delta-opioid receptor expressed in CHO cell membranes assessed as inhibition of DPDPE-induced [35S]GTPgammaS binding incubated for 60 mins by scintillation counting method; type: functional
Homo sapiens [9] = species on record: Homo sapiens; assay: Selectivity index, ratio of Ke for antagonist activity at human delta-opioid receptor expressed in CHO cell membranes to Ke for antagonist activity at human kappa-opioid receptor expressed in CHO cell membranes; type: cell-based

Row | SMILES | Activity [1] | Activity [2] | Activity [3] | Ke [8] [nM] | Kp [4] | Ke [5] [nM] | Ke [6] [nM] | Ratio Ke (Homo sapiens [7]) | Ratio Ke (Homo sapiens [9])
1 | CC(C)[C@@H](CN1CC[C@@](C)(c2cccc(O)c2)[C@@H](C)C1)NC(=O)[C@H]1Cc2ccc(O)cc2CN1 [JDTIC] | – | – | – | – | 7 | – | – | – | –
2 | COC1CCN(C[C@@H](NC(=O)[C@H]2Cc3ccc(O)cc3CN2)C(C)C)CC1 | inactive | inactive | inactive | – | – | 198 | 6.53 | 30 | –
3 | CC(C)[C@@H](CN1C2CCC1CC2)NC(=O)[C@H]1Cc2ccc(O)cc2CN1 | inactive | inactive | inactive | – | – | – | – | – | –
4 | CC(C)[C@@H](CN1CCC(C)(C)CC1)NC(=O)[C@H]1Cc2ccc(O)cc2CN1 | inactive | inactive | inactive | 847 | – | 142 | – | 40 | > 237
5 | CC(C)[C@@H](CN1CCC(C(F)F)CC1)NC(=O)[C@H]1Cc2ccc(O)cc2CN1 | inactive | inactive | inactive | – | – | 70.9 | 3.45 | – | –
6 | CC(C)CN(CC(C)C)C[C@@H](NC(=O)[C@H]1Cc2ccc(O)cc2CN1)C(C)C | inactive | inactive | inactive | – | – | – | 137 | – | –
7 | CC(C)[C@@H](CN1CC[C@@](C)(c2cccc(O)c2)[C@@H](C)C1)NC(=O)[C@H]1Cc2ccc(O)cc2CN1C | – | – | – | – | – | – | – | 1310 | 3070
8 | CC(C)[C@@H](CN1CCC(C(F)(F)F)CC1)NC(=O)[C@H]1Cc2ccc(O)cc2CN1 | inactive | inactive | inactive | – | – | 67.9 | 4.69 | 14 | –
9 | CC(C)[C@@H](CN1CCN(C)CC1)NC(=O)[C@H]1Cc2ccc(O)cc2CN1 | inactive | inactive | inactive | – | – | 915 | 98.8 | 9 | –
10 | CC(C)[C@@H](CN1CCCCC1)NC(=O)[C@H]1Cc2ccc(O)cc2CN1 | inactive | inactive | inactive | – | – | – | – | – | –
11 | CC(C)[C@@H](CN1CCC(C#N)CC1)NC(=O)[C@H]1Cc2ccc(O)cc2CN1 | inactive | inactive | inactive | – | – | 647 | 12.7 | 51 | –
12 | CC(C)[C@@H](CN1CCCCC1C)NC(=O)[C@H]1Cc2ccc(O)cc2CN1 (mixture of isomers) | inactive | inactive | inactive | – | – | 44.9 | 15.1 | 3 | –
13 | CCN(CC)C[C@@H](NC(=O)[C@H]1Cc2ccc(O)cc2CN1)C(C)C | inactive | inactive | inactive | – | – | – | – | 16.5 | –
14 | CC1CC(C)CN(C[C@@H](NC(=O)[C@H]2Cc3ccc(O)cc3CN2)C(C)C)C1 (stereo not given in full) | inactive | inactive | inactive | – | – | – | – | – | –
15 | CC(C)[C@@H](CN1CCC(C(N)=O)CC1)NC(=O)[C@H]1Cc2ccc(O)cc2CN1 | inactive | inactive | inactive | – | – | 129 | 3.22 | 40 | –
16 | CCC1CCN(C[C@@H](NC(=O)[C@H]2Cc3ccc(O)cc3CN2)C(C)C)CC1 | inactive | inactive | inactive | 2490 | – | 74.8 | 2.48 | 30 | 1000
17 | CC(C)[C@@H](CN1CCC(N(C)C)CC1)NC(=O)[C@H]1Cc2ccc(O)cc2CN1 | inactive | inactive | inactive | – | – | 318 | 8.08 | 39 | –
18 | CC(C)[C@@H](CN1CCC(F)(F)CC1)NC(=O)[C@H]1Cc2ccc(O)cc2CN1 | inactive | inactive | inactive | – | – | 604 | 11.8 | 51 | –
19 | CC1CCN(C[C@@H](NC(=O)c2ccc3cc(O)ccc3c2)C(C)C)CC1 | inactive | inactive | inactive | – | – | – | – | – | –
20 | CC(C)[C@@H](CN1CCOCC1)NC(=O)[C@H]1Cc2ccc(O)cc2CN1 | inactive | inactive | inactive | – | – | – | 396 | – | –
21 | CC1CCN(C[C@@H](NC(=O)[C@H]2Cc3ccc(O)cc3CN2)C2CC2)CC1 | inactive | inactive | inactive | – | – | – | – | – | –

Second part, led by results:

Row | Activity [1] | Activity [2] | Activity [3] | Ke [8] [nM] | SMILES | Kp [4] | Ke [5] [nM] | Ke [6] [nM] | Ratio Ke (Homo sapiens [7]) | Ratio Ke (Homo sapiens [9])
22 | inactive | inactive | inactive | – | CC1=CCCN(C[C@@H](NC(=O)[C@H]2Cc3ccc(O)cc3CN2)C(C)C)C1 | – | – | – | – | –
23 | inactive | inactive | inactive | – | CC(C)[C@@H](CN1CCCCC1=O)NC(=O)[C@H]1Cc2ccc(O)cc2CN1 | – | – | – | – | –
24 | inactive | inactive | inactive | – | O=C(NCCN1CCCCC1)[C@H]1Cc2ccc(O)cc2CN1 | – | – | – | – | –
25 | inactive | inactive | inactive | – | CC(C)[C@@H](CN1CC=CCC1)NC(=O)[C@H]1Cc2ccc(O)cc2CN1 | – | – | – | – | –
26 | inactive | inactive | inactive | – | CC1CCN(C[C@@H](NC(=O)[C@H](N)Cc2ccc(O)cc2)C(C)C)CC1 | – | – | – | – | –
27 | inactive | inactive | inactive | – | CCCN(CCC)C[C@@H](NC(=O)[C@H]1Cc2ccc(O)cc2CN1)C(C)C | – | – | – | – | –
28 | inactive | inactive | inactive | – | CC(C)[C@@H](CN1CC[C@@H](C)[C@@H](C)C1)NC(=O)[C@H]1Cc2ccc(O)cc2CN1 (mixture of isomers) | – | – | – | – | –
29 | inactive | inactive | inactive | – | CC1CCCN(C[C@@H](NC(=O)[C@H]2Cc3ccc(O)cc3CN2)C(C)C)C1 (mixture of isomers) | – | – | – | – | –
30 | inactive | inactive | inactive | – | CC(C)[C@@H](CN1CCCCCC1)NC(=O)[C@H]1Cc2ccc(O)cc2CN1 | – | – | – | – | –
31 | inactive | inactive | inactive | > 3000 | CC1CCN(C[C@H](NC(=O)[C@@H]2Cc3ccc(O)cc3CN2)C(C)C)CC1 | – | – | – | – | –
32 | inactive | inactive | inactive | – | CC1CCN(C[C@@H](NC[C@H]2Cc3ccc(O)cc3CN2)C(C)C)CC1 | – | – | – | – | –
33 | inactive | inactive | inactive | > 3000 | CC1CCN(C[C@@H](NC(=O)[C@@H]2Cc3ccc(O)cc3CN2)C(C)C)CC1 | – | – | – | – | –
34 | inactive | inactive | inactive | – | CC(C)[C@@H](CN1CCCC1)NC(=O)[C@H]1Cc2ccc(O)cc2CN1 | – | – | – | – | –
35 | inactive | inactive | inactive | – | CC1=CCN(C[C@@H](NC(=O)[C@H]2Cc3ccc(O)cc3CN2)C(C)C)CC1 | – | – | – | – | –
36 | inactive | inactive | inactive | – | CC1=C(C)CN(C[C@@H](NC(=O)[C@H]2Cc3ccc(O)cc3CN2)C(C)C)CC1 | – | – | – | – | –
37 | inactive | inactive | inactive | – | CC1CCN(C[C@@H](NC(=O)[C@@H]2CCc3cc(O)ccc3C2)C(C)C)CC1 | – | – | – | – | –
38 | inactive | inactive | inactive | – | CC(C)[C@@H](CN1CC[C@H](C)[C@@H](C)C1)NC(=O)[C@H]1Cc2ccc(O)cc2CN1 (mixture of isomers) | – | – | – | – | –
39 | inactive | inactive | inactive | > 3000 | CC1CCN(C[C@H](NC(=O)[C@H]2Cc3ccc(O)cc3CN2)C(C)C)CC1 | – | – | – | – | –
